Consider one compound from patent US10946093B2, “Methods of treating cancer using PD-1 axis binding antagonists and MEK inhibitors” (Genentech, Inc., priority 2014, dated 2021).

The test deals with Vemurafenib-progressing melanoma tumors. Put plainly: Melanoma GEM model B-raf V600E; PTEN fl/fl; TyCreER, Vemurafenib-progressing tumors. It is filed as in vivo, mouse. As to conditions: 2nd line after first line Vemurafenib; GDC-0973 7.5 mg/kg PO qd; anti-PDL1 10 mg/kg IP three times weekly.

Excerpt: A melanoma GEM model B-raf^V600E; PTEN^fl/fl; TyCreER was used.
Animals were enrolled into the study once their tumors reached a size greater than or equal to 400 mm^3.
Prior to beginning treatment, each mouse received a biopsy of a melanoma tumor. After the biopsy, mice were allowed to recover for up to one week prior to receiving treatment. Mice were assigned into initial treatment groups (n=20), and treatment commenced at day 0.
When animals in any group reached ˜2000 mm^3, the tumors were biopsied a second time. After the biopsy procedure, mice recovered for up to one week prior to receiving further therapeutic treatment.
Mice were weighed and tumors measured at least once a week until study termination. Mice received treatment each day until a mean tumor volume of 2500 mm^3 was achieved. Mice were then euthanized, and melanoma tumors were collected for histology and assessing molecular changes. Mice were perfused under anesthesia at euthanasia.
Throughout the study, mice were monitored for clinical appearance (body condition, coat appearance, posture, labored breathing, etc.) at least 2 times a week, with increasing frequency, up to daily, depending on severity of adverse clinical signs observed. Moribund animals were euthanized. Mice with a body condition score <2 were euthanized.

For the compound `O=C(c1ccc(F)c(F)c1Nc1ccc(I)cc1F)N1CC(O)([C@@H]2CCCCN2)C1` [Cobimetinib, Methanone, [3,4-difluoro-2-[(2-fluoro-4-iodophenyl)amino]phenyl][3-hydroxy-3-(2S)-2-piperidinyl-1-azetidinyl]-], the “effect on tumor growth (percent tumor volume change over time, FIG. 1)” value was “initial tumor regression, but this response was not sustained and tumor re-growth was observed”.
